Like-named read-outs stand apart in the source and are kept apart here.
Legend:
[1] = system: nerve fibers of the ganglion inferius; settings: guinea pig lung tissue; cited from earlier work
[2] = human, in vivo; cited from earlier work
[3] = Study MK-7264-012 (NCT02612610) of Gefapixant: taste-related adverse events; assay type: in vivo, human; settings: 50 mg; difference between treatment groups
Experimental: In addition, a large number of clinical trial protocols for AF-219 (MK-7264, Gefapixant) and their results are recorded on ClinicalTrials.gov. For example, the results of a trial in which 253 of the 367 candidate patients were randomly assigned to a twice daily oral administration group of a placebo, 7.5 mg, 20 mg or 50 mg of AF-219 to confirm the therapeutic effect after 12 weeks, have been published under the identification number NCT02612610. Among the trial results, it was published that as one of the adverse events, for example, dysgeusia was confirmed in each dose group: 9.52% (7.5 mg administration group, 6 out of 63 cases), 33.33% (20 mg administration group, 21 out of 63 cases) and 47.62% (50 mg administration group, 30 out of 63 cases). […]
Based on the above results, for the proportion of subjects who experienced any of the taste-related adverse events, the study design of each study was taken into account, and as the difference between each investigational drug and placebo, the mean of differences of incidence in the same subject between the treatments and the two-sided 95% confidence interval thereof were calculated for Test Example 6, and the difference of incidence between the Gefapixant 50 mg treatment group and the placebo treatment group and the two-sided 95% confidence interval thereof were calculated for the study MK-7264-012.

[4] = system: patients with chronic cough; settings: cited from earlier work
[5] = cited from earlier work; for dysgeusia as adverse event: 12 weeks
[6] = cited from earlier work
[7] = system: pulmonary vagal afferent C and A fibers; settings: cited from earlier work
[8] = 50 mg twice daily, 63 subjects in safety analysis

In the case of TNP-ATP, the “action potential in nerve fibers of the ganglion inferius evoked by ATP or αβ-methylene ATP” value [1] is given as “almost completely suppressed”.
For `COc1cc(C(C)C)c(Oc2cnc(N)nc2N)cc1I` [AF-353], the “action potential in nerve fibers of the ganglion inferius evoked by ATP or αβ-methylene ATP” value [1] is given as “almost completely suppressed”.
In the case of `Cc1cnc(-c2cc(O[C@@H]3CCOC3)cc(C(=O)N[C@H](C)c3cnc(C(F)(F)F)nc3)c2)s1` [BAY-1817080], the “number of coughs per 24 hours” value [2] is given as “a reduction in the number of coughs per 24 hours was confirmed”.
In the case of `COc1cc(C(C)C)c(Oc2cnc(N)nc2N)cc1S(N)(=O)=O` [Gefapixant], the “Difference of incidence of any of the taste-related adverse events (drug − placebo)” value [3] is given as 74.6%, the “hypogeusia as adverse event” value ([4]; 13 out of 24 cases) is given as 54% and the “dysgeusia as adverse event” value ([4]; 21 out of 24 cases) is given as 88%. For the same compound, the “participants who discontinued the trial due to a taste disturbance (hypogeusia or dysgeusia)” value ([4]; human, in vivo) was 6, the taste-related disorder ([4]; patients administered with AF-219) was “all patients developed some kind of taste-related disorder” and the “reduction of the frequency of daytime cough compared to the placebo group” value ([4]; patients with chronic cough) was 75%. For the same compound, the “dysgeusia as adverse event” value ([5]; 7.5 mg twice daily, 6 out of 63 cases) was 9.52%, the “dysgeusia as adverse event” value ([5]; 20 mg twice daily, 21 out of 63 cases) was 33.33% and the “dysgeusia as adverse event” value ([5]; 50 mg twice daily, 30 out of 63 cases) was 47.62%. For the same compound, the “Ageusia, number of subjects and incidence” value [5, 8] was 13 (20.6%), the “Any of taste-related adverse events, number of subjects and incidence” value [5, 8] was 51 (81.0%) and the “Dysgeusia, number of subjects and incidence” value [5, 8] was 30 (47.6%). The “Hypogeusia, number of subjects and incidence” value [5, 8] was 15 (23.8%).
For `CNC(=O)c1cc(F)c(-c2nc3cc(C)ccn3c2C[C@H]2CN(C(=O)OC)CCO2)c(F)c1` [BLU-5937], the “taste changes, subjects” value ([6]; 100 mg (n=16)) is given as 6.3%, the “partial taste loss, subjects” value ([6]; 400 mg (n=16)) is given as 6.25% and the “taste changes, subjects” value ([6]; 400 mg (n=16)) is given as 37.5%. The “partial taste loss, subjects” value ([6]; 800 mg (n=8)) was 12.5%, the “taste changes, subjects” value ([6]; 800 mg (n=8)) was 62.5% and the “taste changes, subjects” value ([6]; 1200 mg (n=8)) was 25%. The “course of taste-related adverse events” value ([6]; single and repeated administration) was “all taste-related adverse events were transient and sporadic”.
In the case of `O=C(O)c1cc(C(=O)O)c(C(=O)N(Cc2cccc(Oc3ccccc3)c2)[C@H]2CCCc3ccccc32)cc1C(=O)O` [Compound A-317491, (5-({3-phenoxybenzyl)[(1S)-1,2,3,4-tetrahydro-1-naphthalenyl]amino}carbonyl)-1,2,4-benzenetricarboxylic acid], the “activity of pulmonary vagal afferent C and A fibers by α,βmATP” value [7] is given as “inhibits activity of the pulmonary vagal afferent C and A fibers”.

— patent US11883407B2, “Medicament for the treatment of chronic cough” (Shionogi & Co., Ltd., priority 2018, dated 2024)
